Test results reported in patent US9057727B2, “Screening methods using G-protein coupled receptors and related compositions” (The General Hospital Corporation, priority 2007, dated 2015).
Square brackets hold non-standard residues; d marks the D form. Peptide text beside a SMILES is read from it. hArg = N=C(N)NCCCC[C@H](N)C(=O)O; Nle = CCCC[C@H](N)C(=O)O; Aib = CC(C)(N)C(=O)O

What was measured:
[1] = system: PTHR-CFPIC3/YFPCT (PTHR-cam); experiment: FRET analysis of ligand binding/receptor activation in HEK-293 cells; assay type: cell-based, human
Text: HEK-293 cells stably transfected with a PTHR construct (PTHR-cam) containing cyan fluorescent protein (CFP) in the third intracellular loop and yellow fluorescent protein (YFP) in the carboxy-terminal tail, were used to assess the kinetics of ligand binding to, and dissociation from the PTHR. With PTHR-cam, excitation of the CFP with ultraviolet light (λexc=436 nm) produces an intramolecular FRET to the YFP, which is observable as an increase in light emission from YFP (λemm=535 nm) and a decrease in light emission from CFP λemm=480 nm). This FRET signal occurs in the ground-state receptor and decreases upon agonist binding. […] Data are from a single experiment, and identical results were obtained in at least three others.
The approach used exploits an intramolecular FRET signal that occurs in a human PTHR construct, PTHR-CFPIC3/YFPCT (formerly called PTHR-cam). This construct contains cyan-fluorescent protein (CFP) in the third intracellular loop and yellow-fluorescent protein (YFP) in the carboxy-terminal tail. A FRET signal is produced by PTHR-CFPIC3/YFPCT in the basal state, and this signal diminishes upon agonist binding, likely due to conformational change that occurs upon activation.
HEK-293 cells stably expressing HEK-PTHR-CFPIC3/YFPCT (previously called HEK-PTHR-Cam cells (Vilardaga et al., Nat. Biotechnol. 21:807-812 (2003)) were grown on glass coverslips and processed for FRET analysis as described. With these cells, excitation of the CFP (donor) in PTHR-CFPIC3/YFPCT with ultraviolet light (λmax.ex.=436 nm; λmax.em.=480 nm) produces an intramolecular FRET to the YFP (acceptor), resulting in emission from that YFP (λmax.ex.=480 nm, λmax.em.=535 nm). This FRET response is observable as a decrease in intensity of CFP light emission at 480 nm, and an increase in intensity of YFP light emission at 535 nm. The FRET signal is produced by PTHR-CFPIC3/YFPCT in the ground-state receptor and decreases upon binding of an agonist. […] Fluorescence was monitored using a Zeiss inverted microscope equipped with a 100× objective and a dual emission photometric system (Til Photonics), coupled to an avalanche photodiode detection system and an analog-digital converter (Axon Instruments). The FRET signal detected upon excitation at 436 nm was calculated as the normalized FRET ratio: FYFP(535 nm)/FCFP(480 nm) where FYFP(535 nm) is the emission at 535 nm, corrected for spillover of the CFP signal into the YFP channel, and FCFP(480 nm) is the emission at 480 nm, corrected for spillover (minimal) of the YFP emission into the CFP channel. Changes in fluorescence emissions due to photo-bleaching were subtracted.

[2] = biological target: T1, human PTHR, G protein-coupled conformation (RG) (Homo sapiens, UniProt Q03431); experiment: Competition binding to RG conformation of hPTHR (COS-7 membranes, GαsND, 125I-[Aib1,3,M]PTH(1-15) tracer); conditions: Table 5; read-out: IC50 RG, ^125I-PTH(1-15) + GsND
T1 construct: expressed in transfected cells; host or cells: COS-7, transient (Fugene-6); membranes
T1 sequence (Q03431 27-593): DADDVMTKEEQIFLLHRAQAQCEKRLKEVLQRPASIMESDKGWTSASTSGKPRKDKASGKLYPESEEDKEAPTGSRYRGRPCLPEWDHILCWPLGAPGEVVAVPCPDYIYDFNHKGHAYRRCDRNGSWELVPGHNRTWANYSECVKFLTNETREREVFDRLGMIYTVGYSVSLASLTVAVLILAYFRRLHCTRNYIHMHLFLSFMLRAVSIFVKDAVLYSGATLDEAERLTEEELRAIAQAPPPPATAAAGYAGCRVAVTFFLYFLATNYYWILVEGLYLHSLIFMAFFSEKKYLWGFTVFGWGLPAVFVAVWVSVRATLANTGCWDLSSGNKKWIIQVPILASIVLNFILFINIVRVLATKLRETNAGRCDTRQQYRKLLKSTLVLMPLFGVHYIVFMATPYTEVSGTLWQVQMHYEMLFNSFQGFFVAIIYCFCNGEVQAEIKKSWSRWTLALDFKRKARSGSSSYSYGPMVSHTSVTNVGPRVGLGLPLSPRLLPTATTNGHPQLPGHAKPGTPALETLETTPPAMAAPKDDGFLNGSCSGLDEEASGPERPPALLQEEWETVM

hPTHR = biological target: T2, hPTHR (Homo sapiens, UniProt Q03431); experiment: Delayed cAMP response after ligand wash-out in HKRK-B64 cells; assay type: cell-based; set-up: expressed in transfected cells; conditions: HKRK-B64, at two hours (so in the source); read-out: cAMP response after wash-out, % of maximum response
T2 sequence (Q03431 27-593): T1 sequence (Q03431 27-593)
Experimental: The cells were pre-treated for 10 minutes with either buffer alone (basal) or buffer containing ligand (100 nM); at t=0, the cells were washed, incubated in buffer for the times indicated (wash-out phase), treated with 3-isobutyl-1-methylxanthine (IBMX) for five minutes, and then assessed for intracellular cAMP. […] The cAMP level in cells treated with IBMX in the absence of ligand was 2.0±0.3 pmole/well. Data are means (±s.e.m.) of three experiments, each performed in duplicate. […] Analogs were similarly assessed in HKRK-B64 cells (90,000 hPTHRs/cell) at a single time-point, 60 minutes after ligand wash-out (FIG. 5B). For each peptide, the data are expressed as a percentile of the maximum cAMP responses (indicated in side panel) produced in cells treated concomitantly with that ligand and IBMX for 10 minutes and omitting the wash-out phase. […] Data are means (±s.e.m) of four experiments, each performed in triplicate.
The capacity of the ligands to produce sustained (or delayed) cAMP signaling responses was further examined in HKRK-B64 cells, which express the hPTHR at a more physiological level than do HKRK-B7 cells (90,000 per cell vs. 950,000/cell).
The capacities of ligands to produce a delayed cAMP response in cells after a brief exposure to the ligand was assessed as follows. The cells in 24-well plates were rinsed in binding buffer (50 mM Tris-HCl, pH 7.7, 100 mM NaCl, 5 mM KCl, 2 mM CaCl2, 5% heat-inactivated horse serum, 0.5% heat-inactivated fetal bovine serum) and then incubated in binding buffer with or without a peptide ligand (1×10^−7 or 3×10^−7 M) for 10 minutes at room temperature; the buffer was then removed, the cells were washed three times with binding buffer, incubated further in binding buffer for varying times (1 to 120 minutes); the buffer was then replaced by binding buffer containing IBMX (2 mM), and after an additional five minute incubation, the intracellular cAMP was quantified.

[3] = biological target: T3, human PTHR, G protein-uncoupled conformation (R^0) (Homo sapiens, UniProt Q03431); experiment: Competition binding to R0 conformation of hPTHR (COS-7 membranes, GTPγS, 125I-PTH(1-34) tracer)
T3 construct: expressed in transfected cells; host or cells: COS-7, transient (Fugene-6)
T3 sequence (Q03431 27-593): T1 sequence (Q03431 27-593)
How it was run: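 Membranes from hPTHR-transfected COS-7 cells (20-100 μg/mL protein) incubated 90 min with radioligand (~150,000 cpm/ml) and unlabeled ligands, then filtered. Specific binding expressed as % of binding without competitor.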

[4] = Plasma cAMP in mice after subcutaneous injection; assay type: in vivo
Experimental: FIGS. 9A-9D are graphs showing in vivo plasma cAMP levels in mice treated with PTH analogs. Wild-type mice were injected subcutaneously with vehicle (0.9% NaCl/0.05% Tween-20), or vehicle containing a PTH peptide at a dose-level of 10 to 1,000 nmol of peptide per kg of body weight, and at indicated times after injection, blood was withdrawn from the tail vein, and the amount of cAMP in the resulting plasma was quantified by radioimmuno assay. Each curve corresponds to a peptide at a defined concentration, as indicated in the graph keys. The plasma cAMP concentrations are plotted as picomole per μl plasma.
(§1) Wild-type mice were injected subcutaneously with vehicle (0.9% NaCl/0.05% Tween-20), or vehicle containing a PTH peptide so as to achieve a concentration ranging from 10 to 1000 nmol/kg of body weight. At the indicated times after injection, blood was withdrawn from the tail vein, and the amount of cAMP in the resulting plasma was quantified by radioimmuno assay (FIGS. 9A-9D).
as §1, with “at” for “so as to achieve”, “dose level of” for “concentration ranging from”, “At” for “At the”, “assay. Ionized calcium in serum was measured as above and phosphate was measured by a U.V. spectroscopic kit assay.” for “assay (FIGS. 9A-9D).”

[5] = biological target: T4, ROS 17/2.8 cells (endogenous rat PTHR) (Rattus norvegicus, UniProt P25961); experiment: Acute cAMP response in ROS 17/2.8 rat osteoblastic cells; assay type: cell-based; conditions: 10^−7 M, hPTH(1-28) 10^−6 M, basal 3.7±0.4
T4 construct: the rat osteoblastic cell line ROS17/2.8, which endogenously expresses the rat PTHR; endogenous in cells; host or cells: ROS 17/2.8 rat osteosarcoma cells (membranes or intact cells)
T4 sequence (P25961 27-591): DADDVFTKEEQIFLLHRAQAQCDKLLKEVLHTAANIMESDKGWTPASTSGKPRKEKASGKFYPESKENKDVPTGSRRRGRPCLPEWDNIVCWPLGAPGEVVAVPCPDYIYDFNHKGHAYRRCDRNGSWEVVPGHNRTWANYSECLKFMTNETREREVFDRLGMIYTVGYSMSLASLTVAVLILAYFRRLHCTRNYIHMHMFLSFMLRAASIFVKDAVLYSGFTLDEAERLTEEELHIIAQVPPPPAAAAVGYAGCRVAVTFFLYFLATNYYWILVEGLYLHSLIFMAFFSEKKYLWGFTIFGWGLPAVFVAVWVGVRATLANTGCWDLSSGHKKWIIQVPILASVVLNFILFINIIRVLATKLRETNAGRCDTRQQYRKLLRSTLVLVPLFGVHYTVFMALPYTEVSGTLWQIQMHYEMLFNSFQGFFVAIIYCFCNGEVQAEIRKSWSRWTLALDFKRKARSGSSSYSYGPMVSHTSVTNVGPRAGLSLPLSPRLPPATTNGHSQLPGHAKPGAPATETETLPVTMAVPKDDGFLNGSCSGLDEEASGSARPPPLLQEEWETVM
Text: The resulting intracellular cAMP formed was quantified by radioimmuno assay. […] Curve fits were obtained by non-linear regression analysis.

[6] = Calcemic action in normal rats (blood ionized calcium); assay type: in vivo; conditions: normal rats, i.v.
Experimental: Binding to the rat PTHR was also measured in vitro.
Concentration of peptides in stock solution were adjusted by dilution with 25 mmol/L phosphate-citrate buffer/100 mmol/L NaCl/0.05% Tween 80 (pH. 5.0) (PC-buffer). All peptides were allowed to stand on ice immediately before administration.
Female SD-IGS rat at 8 weeks of age (Charles River Japan, Inc.) were measured for their body weight. Blood was collected by tail vein into heparinized capillary tubes and measured for baseline levels of blood ionized calcium and pH using Ca^++/pH analyzer (Model 634/Bayer Medical Ltd.) to give the corrected level of ionized calcium at pH 7.4 for each sample. Rats received intravenous administration of each peptides at a dose of 1 ml/kg. Peptides were administered to groups of 6 rats each respectively. At 1, 2, 4, or 6 hours after administration, blood was collected by tail vein to monitor the time course of corrected blood ionized calcium levels. The time course of changes in corrected ionized calcium levels, compared to vehicle, and are expressed as means+/−standard error.

[7] = biological target: T4, ROS 17/2.8 cells (endogenous rat PTHR); experiment: Delayed cAMP response in ROS 17/2.8 cells; assay type: cell-based
Experimental: The analogs used were [E^19],Mc-hPTH(1-34)OH (SEQ ID NO:21) and [A^23,E^19],Mc-hPTH(1-34)OH (SEQ ID NO:28) (Mc=Ala^1,3,12,Gln^10,Arg^11,Trp^14, Arg^19).
The data in FIG. 21B are expressed as a percent of the maximum response observed for each ligand, determined by incubating the cells with ligand in the presence of IBMX for 10 minutes (no ligand wash-out). These values were 67±6; 68±3; and 71±1 pmole/well, respectively. The basal (vehicle) cAMP value was 3.7±0.4 pmole/well.
Following treatment of cells with a ligand, the intracellular cAMP levels were measured by radioimmuno assay, as described (Shimizu et al., J. Biol. Chem. 276:49003-49012 (2001)). The capacities of ligands to produce a delayed cAMP response in cells after a brief exposure to the ligand was assessed as follows. […]

Question: For `CCCC[C@H](NC(=O)[C@H](CC(C)C)NC(=O)[C@H](CCC(N)=O)NC(=O)[C@@H](NC(=O)[C@H](CCC(=O)O)NC(=O)C(C)(C)NC(=O)[C@@H](NC(=O)C(C)(C)N)C(C)C)[C@@H](C)CC)C(=O)N[C@@H](Cc1c[nH]cn1)C(=O)N[C@@H](CCC(N)=O)C(=O)N[C@@H](CCCCNC(=N)N)C(=O)N[C@@H](C)C(=O)N[C@@H](CCCCN)C(=O)N[C@@H](Cc1c[nH]c2ccccc12)C(=O)N[C@@H](Cc1ccc(O)cc1)C(N)=O` [[Aib^1,3,M]rPTH(1-15)NH2, [Aib^1,3,Nle^8,Gln^10,homoarginine^11,Ala^12,Trp^14,Tyr^15]rPTH(1-15)NH2, reference compound] (H-[Aib]V[Aib]EIQL[Nle]HQ[hArg]AKWY-NH2; N-terminus assumed), which “FRET signal after exchange to ligand-free buffer, in words” value [1] is on record?
Answer: Its value is “began to decay immediately upon exchange of the buffer to a ligand-free one”.

Question: And the IC50 [2]?
Answer: The IC50 was 0.74 ± 0.18 nM.

Question: And the Emax (hPTHR)?
Answer: The Emax was 23%.

Question: What about the “R0:RG” value ([3]; Table 5, fold weaker affinity for R0 than RG) of the same compound?
Answer: Its value is 1,397.

Question: With `CC[C@H](C)[C@H](NC(=O)[C@H](CCC(=O)O)NC(=O)[C@H](CO)NC(=O)[C@@H](NC(=O)[C@@H](N)CO)C(C)C)C(=O)N[C@@H](CCC(N)=O)C(=O)N[C@@H](CC(C)C)C(=O)N[C@@H](CCSC)C(=O)N[C@@H](Cc1c[nH]cn1)C(=O)N[C@@H](CC(N)=O)C(=O)N[C@@H](CC(C)C)C(=O)NCC(=O)N[C@@H](CCCCN)C(=O)N[C@@H](Cc1c[nH]cn1)C(=O)N[C@@H](CC(C)C)C(=O)N[C@@H](CC(N)=O)C(=O)N[C@@H](CO)C(=O)N[C@@H](CCSC)C(=O)N[C@@H](CCC(=O)O)C(=O)N[C@@H](CCCNC(=N)N)C(=O)N[C@H](C(=O)N[C@@H](CCC(=O)O)C(=O)N[C@@H](Cc1c[nH]c2ccccc12)C(=O)N[C@@H](CC(C)C)C(=O)N[C@@H](CCCNC(=N)N)C(=O)N[C@@H](CCCCN)C(=O)N[C@@H](CCCCN)C(=O)N[C@@H](CC(C)C)C(=O)N[C@@H](CCC(N)=O)C(=O)N[C@@H](CC(=O)O)C(=O)N[C@H](C(=O)N[C@@H](Cc1c[nH]cn1)C(=O)N[C@@H](CC(N)=O)C(=O)N[C@@H](Cc1ccccc1)C(N)=O)C(C)C)C(C)C` [hPTH(1-34)NH2] as the compound, how does the “dose producing comparable increase in plasma cAMP” value [4] read?
Answer: The value was 50 nmol/kg.

Question: And the “maximum cAMP response (ligand with IBMX 10 minutes, no wash-out)” value [5]?
Answer: Its value is 67±6 pmole/well.

Question: Which results are given for `CC[C@H](C)[C@H](NC(=O)[C@H](CCC(=O)O)NC(=O)[C@H](CO)NC(=O)[C@@H](NC(=O)[C@@H](N)CO)C(C)C)C(=O)N[C@@H](CCC(N)=O)C(=O)N[C@@H](CC(C)C)C(=O)N[C@@H](CCSC)C(=O)N[C@@H](Cc1c[nH]cn1)C(=O)N[C@@H](CC(N)=O)C(=O)N[C@@H](CC(C)C)C(=O)NCC(=O)N[C@@H](CCCCN)C(=O)N[C@@H](Cc1c[nH]cn1)C(=O)N[C@@H](CC(C)C)C(=O)N[C@@H](CC(N)=O)C(=O)N[C@@H](CO)C(=O)N[C@@H](CCSC)C(=O)N[C@@H](CCC(=O)O)C(=O)N[C@@H](CCCNC(=N)N)C(=O)N[C@H](C(=O)N[C@@H](CCC(=O)O)C(=O)N[C@@H](Cc1c[nH]c2ccccc12)C(=O)N[C@@H](CC(C)C)C(=O)N[C@@H](CCCNC(=N)N)C(=O)N[C@@H](CCCCN)C(=O)N[C@@H](CCCCN)C(=O)N[C@@H](CC(C)C)C(N)=O)C(C)C` [hPTH(1-28)NH2] (H-SVSEIQLMHNLGKHLNSMERVEWLRKKL-NH2; N-terminus assumed)?
Answer: dose producing comparable increase in plasma cAMP [4]: 1,000 nmol/kg; maximum cAMP response (ligand with IBMX 10 minutes, no wash-out) [5]: 68±3 pmole/well

Question: With “AVAEIQLMHQRAKWLNSMERVEALRKKLQDVHNF [[A^23,E^19],Mc-hPTH(1-34)OH]” as the compound, how does the “calcemic action (blood ionized calcium), in words” value [6] read?
Answer: Its value is “reduced the hypercalcemic effect”.

Question: What about the “duration of cAMP signaling, in words” value [7] of the same compound?
Answer: The value was “reduced duration of cAMP signaling in cells”.

Question: And the “fold reduction of binding affinity for R^0 by Trp^23→Ala substitution” value ([3]; versus [E^19,Mc]PTH(1-34))?
Answer: Its value is 10 fold.
